Measured values published in patent publication US12310936B2, “Pharmaceutical compositions for the treatment of cancer” (Seleq Oy, priority 2018, dated 2025).
Where a chain is given by its changes, count along the chain named. In names and notes the source's numbering stands.

B1: Y101H: mutant human kynurenine aminotransferase I, tyrosine to histidine substitution at position 101 (protein, listed as Homo sapiens)
chain: MAKQLQARRLDGIDYNPWVEFVKLASEHDVVNLGQGFPDFPPPDFAVEAFQHAVSGDFMLNQYTKTFGYPPLTKILASFFGELLGQEIDPLRNVLVTVGGHGALFTAFQALVDEGDEVIIIEPFFDCYEPMTMMAGGRPVFVSLKPGPIQNGELGSSSNWQLDPMELAGKFTSRTKALVLNTPNNPLGKVFSREELELVASLCQQHDVVCITDEVYQWMVYDGHQHISIASLPGMWERTLTIGSAGKTFSATGWKVGWVLGPDHIMKHLRTVHQNSVFHCPTQSQAAVAESFEREQLLFRQPSSYFVQFPQAMQRCRDHMIRSLQSVGLKPIIPQGSYFLITDISDFKRKMPDLPGAVDEPYDRRFVKWMIKNKGLVAIPVSIFYSVPHQKHFDHYIRFCFVKDEATLQAMDEKLRKWKVEL
B2: H279F: mutant human kynurenine aminotransferase I, histidine to phenylalanine substitution at position 279 (protein, listed as Homo sapiens)
chain: B1 chain with H101Y, H279F

How the values were obtained:
HCC cells = assay: Modulation of SMC cytotoxicity by agents that favor beta-elimination; conditions: more prominent together with overexpression of KYAT1
Native HCC cells = assay: HCC cell viability with SMC in the presence of alfaketoacid analogues, native HCC cells; type: cell-based; conditions: IC50 of SMC in the presence of the labelled alfaketoacid analogue, relative to PPA treated HCC cells (=100)
Description: (§1) Normal hepatocytes and malignant hepatocytes (HCC) were incubated in the presence of various concentrations of SMC. After 72 h, the ATP content of lysed cells, which is proportional to the number of viable cells, was measured using a luminescence-based CellTiter Glo Kit (Promega) according to manufacturer's protocol using a FLx100 Luminometer (BioTek).

KYAT induced cells = assay: HCC cell viability with SMC in the presence of alfaketoacid analogues, KYAT induced cells; type: cell-based; conditions: IC50 of SMC in the presence of the labelled alfaketoacid analogue, relative to untreated KYAT induced cells
Description: as §1

human KYAT1 = assay: Selenol production by mutated KYAT1 using SMC as a substrate; type: biochemical; conditions: mutant versus wild type KYAT1
Source text: The crystal structure of human KYAT1 has been determined for several complexes. The complex of KYAT1 with the cofactor PLP and the inhibitor L-Phe was used to create molecular models of Seleno-methyl Cystein (SMC) in complex with KYAT1 (FIG. 1). Our approach has been to identify residues that can be mutated in order to enhance beta-elimination of SMC, resulting in increased selenol production. This can be done by changing the substrate specificity of KYAT1 from kynurenine to SMC, or by changing kinetics of reprotonation of Calpha in the substrate. Several residues were mutated to check their potential involvement into the selenol formation.

Molecule	effect of the agent on the cytotoxicity of SMC (HCC cells)	SMC IC50 (percentage of control) (Native HCC cells)	selenol production by KYAT1 using SMC as a substrate (human KYAT1)	other results
COC(=O)CCC(=O)C(=O)OC [αKG, dimethyl-2-oxoglutarate]	increase the cytotoxicity of SMC			
Cc1ncc(COP(=O)(O)O)c(C=O)c1O [PLP, pyridoxal 5′-phosphate]	increase the cytotoxicity of SMC			
O=C(O)C(=O)Cc1ccccc1 [PPA, phenyl pyruvic acid]	increase the cytotoxicity of SMC	100 percentage of control		
indole pyruvic acid [IPA]		38 percentage of control		SMC IC50 (percentage of control) (KYAT induced cells): 35 percentage of control
B1			higher selenol production	
B2			higher selenol production	
